Results taken from patent publication US12673052B2, “Combinations for the treatment of cancer” (Exelixis, Inc., priority 2020, dated 2026).
“And” between values parts separate entries of the source, which are not always exact repeats. Equal entries are not always repeated.

Experiments:
mammalian cell = experiment: In vitro mammalian cell genotoxicity bioassay; assay type: cell-based
Method: (§1) The nonclinical toxicity of Compound 1 was characterized in dose range-finding 7-day and definitive 28-day repeat-dose studies in rats and dogs, and in in vitro bacterial and mammalian genotoxicity bioassays. Compound 1 was also evaluated in definitive neurobehavioral, respiratory and cardiovascular safety pharmacology studies.
(§2) Compound 1 was negative in in vitro bacterial and mammalian cell genotoxicity bioassays.

bacterial = experiment: In vitro bacterial genotoxicity bioassay; assay type: cell-based
Method: as §1, §2

advanced solid tumors = experiment: Phase 1 first-in-human Study Compound 1-001 (NCT03845166): safety (DLT, adverse events) and preliminary clinical activity; assay type: in vivo
Excerpt: The maximum tolerated dose (MTD) and/or recommended dose (RD) of Compound 1 single-agent therapy and ICI combination therapy will be determined in a Dose-Escalation Stage. The preliminary efficacy of Compound 1 as single agent and as ICI combination therapy will be determined in a Cohort-Expansion Stage with tumor-specific expansion cohorts. As of 14 Dec. 2020, dose escalation of Compound 1 as single agent and in combination therapy with atezolizumab was ongoing: 19 subjects were enrolled in single agent cohorts across six dose levels (PIB: 10, 20 mg; Tablet: 20, 40, 80, 140 mg); three subjects were enrolled in combination therapy with atezolizumab at one dose level (Compound 1 40 mg po qd plus atezolizumab 1200 mg IV q3w). As of 14 Dec. […] The majority of reported adverse events (AEs) were of low-grade severity (Grade 1-2) with five subjects having experienced treatment-related Grade 3 events.
In the Compound 1 single-agent dose-escalation cohorts, study drug will be administered qd for the first 28 days, which comprises the Dose-Limiting Toxicity (DLT) Evaluation Period. At the end of the 28-day DLT period, the Cohort Review Committee will review all available safety and PK data for cohorts containing at least 3 subjects and dose escalation to the next cohort may proceed if 0 out of 3 subjects or […] subjects experience(s) a DLT (as defined below). Dose escalation to the next cohort will not exceed a doubling of the Compound 1 dose; however, the Cohort Review Committee may decide to institute a less-than-doubling escalation between cohorts based on evaluation of safety and PK results from the current and previous cohorts.
Dose-limiting toxicity is defined as any of the following treatment-emergent AEs occurring during the DLT Evaluation Period for Compound 1 as single-agent therapy: • Any treatment-emergent AE that in the opinion of the Cohort Review Committee is of potential clinical significance such that further dose escalation of Compound 1 would expose subjects to unacceptable risk • Non-hematologic toxicity: treatment-emergent […] AEs • The following hematologic toxicities that are treatment-emergent: • Grade 3 thrombocytopenia with clinically significant bleeding • Grade 4 thrombocytopenia • Grade 4 neutropenia of 4 days duration • Grade 3 neutropenia of any duration with fever (single temperature of ≥38.3° C. [101.0° F.] or sustained temperature of ≥38.0° C. [100.4° F.] for ≥1 hour) or documented infection • Grade 4 anemia • Inability to take 75% of the total planned Compound 1 dose for the DLT Evaluation Period because of a treatment-emergent AE leading to a dose reduction and/or interruption • Any AE experienced during the DLT Evaluation Period that results in permanent discontinuation of Compound 1 For subjects receiving Compound 1 as combination therapy with atezolizumab or avelumab, the above in addition to the following are defined as DLTs: • Any related Grade 3 AE which is unexpected in severity and/or duration compared with the known safety profiles of Compound 1 and atezolizumab or avelumab when used as single agents, and that cannot be managed by dose modification (reduction or interruption) and adequate supportive care, and requires permanent discontinuation of Compound 1 and/or atezolizumab or avelumab. • Any AE experienced during the DLT Evaluation Period that results in permanent discontinuation of Compound 1 and/or atezolizumab or avelumab Note: AEs are presumed attributable to study drug. […]

BCRP = BCRP (Homo sapiens, UniProt Q9UNQ0); experiment: Transporter interaction study (substrate and inhibition); assay type: in vitro ADME
BCRP, sequence (Q9UNQ0 whole entry): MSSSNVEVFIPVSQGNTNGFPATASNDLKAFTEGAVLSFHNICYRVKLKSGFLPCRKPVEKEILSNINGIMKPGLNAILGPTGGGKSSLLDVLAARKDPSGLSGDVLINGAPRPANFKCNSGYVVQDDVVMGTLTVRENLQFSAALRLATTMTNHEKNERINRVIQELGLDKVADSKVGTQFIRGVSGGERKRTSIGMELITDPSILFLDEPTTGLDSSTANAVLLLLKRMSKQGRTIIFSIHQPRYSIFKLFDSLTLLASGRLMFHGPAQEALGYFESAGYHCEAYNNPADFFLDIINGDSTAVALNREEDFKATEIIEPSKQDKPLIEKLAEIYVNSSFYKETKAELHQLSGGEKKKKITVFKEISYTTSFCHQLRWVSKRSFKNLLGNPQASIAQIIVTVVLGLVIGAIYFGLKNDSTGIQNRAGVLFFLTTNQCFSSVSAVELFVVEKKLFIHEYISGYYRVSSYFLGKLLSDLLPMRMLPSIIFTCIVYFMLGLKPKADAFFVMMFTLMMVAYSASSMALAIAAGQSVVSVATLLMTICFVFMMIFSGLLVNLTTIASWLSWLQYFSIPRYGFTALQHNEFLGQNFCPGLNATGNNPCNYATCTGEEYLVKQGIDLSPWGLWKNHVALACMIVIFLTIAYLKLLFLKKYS
Method: (§3) Plasma PK of Compound 1 was characterized in rats and beagle dogs. Toxicokinetic (TK) evaluations of oral Compound 1 were evaluated in repeat-dose studies in rats and dogs. Plasma protein binding was determined in mouse, rat, dog, monkey, and human plasma in vitro. Biotransformation and metabolite profiling of Compound 1 were investigated in vitro using mouse, rat, dog, monkey, and human liver microsomal fractions and hepatocytes and in vivo in rats and dogs. P-glycoprotein (P-gp) and breast cancer resistance protein (BCRP) transporter interaction studies, in vitro experiments evaluating cytochrome P450 (CYP) induction and inhibition by Compound 1, and CYP and glucuronosyltransferase (UGT) substrate specificity studies of Compound 1 were also performed.

P-gp = P-gp (Homo sapiens, UniProt P08183); experiment: as above; assay type: in vitro ADME
P-gp, sequence (P08183 whole entry): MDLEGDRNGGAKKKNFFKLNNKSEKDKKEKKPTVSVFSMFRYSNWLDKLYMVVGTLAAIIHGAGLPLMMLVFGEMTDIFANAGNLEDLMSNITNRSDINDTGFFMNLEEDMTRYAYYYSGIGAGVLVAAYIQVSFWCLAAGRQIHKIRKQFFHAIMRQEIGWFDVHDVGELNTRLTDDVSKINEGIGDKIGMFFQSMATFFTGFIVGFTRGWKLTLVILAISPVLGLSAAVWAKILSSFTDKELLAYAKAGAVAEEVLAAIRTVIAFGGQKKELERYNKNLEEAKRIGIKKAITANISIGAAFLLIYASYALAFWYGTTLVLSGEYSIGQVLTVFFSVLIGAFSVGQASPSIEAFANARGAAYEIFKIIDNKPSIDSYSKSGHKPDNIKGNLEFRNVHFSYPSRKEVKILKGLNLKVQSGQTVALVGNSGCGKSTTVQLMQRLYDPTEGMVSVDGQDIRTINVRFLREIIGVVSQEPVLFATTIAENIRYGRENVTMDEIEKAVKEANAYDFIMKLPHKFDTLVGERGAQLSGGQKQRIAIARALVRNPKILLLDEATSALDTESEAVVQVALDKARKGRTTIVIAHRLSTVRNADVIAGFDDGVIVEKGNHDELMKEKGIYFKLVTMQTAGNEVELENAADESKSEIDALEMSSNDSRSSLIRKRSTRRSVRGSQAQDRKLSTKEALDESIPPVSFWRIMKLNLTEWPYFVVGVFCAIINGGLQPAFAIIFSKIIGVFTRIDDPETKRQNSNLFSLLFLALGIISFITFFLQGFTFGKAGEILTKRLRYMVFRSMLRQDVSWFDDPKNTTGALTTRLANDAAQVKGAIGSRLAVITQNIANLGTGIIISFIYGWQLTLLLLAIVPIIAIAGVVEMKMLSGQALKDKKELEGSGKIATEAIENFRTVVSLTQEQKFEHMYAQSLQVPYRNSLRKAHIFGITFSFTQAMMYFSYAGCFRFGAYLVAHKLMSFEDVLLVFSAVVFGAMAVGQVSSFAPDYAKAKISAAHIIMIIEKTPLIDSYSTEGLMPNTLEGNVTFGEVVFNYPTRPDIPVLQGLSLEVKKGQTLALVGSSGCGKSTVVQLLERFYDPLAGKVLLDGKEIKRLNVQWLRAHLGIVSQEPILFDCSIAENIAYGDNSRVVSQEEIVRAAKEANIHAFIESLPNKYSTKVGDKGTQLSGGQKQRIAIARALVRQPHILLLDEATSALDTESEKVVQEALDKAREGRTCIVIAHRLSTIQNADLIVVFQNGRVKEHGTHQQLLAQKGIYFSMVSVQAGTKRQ
Method: as §3

[1] = tested on: primary human macrophages; experiment: Macrophage re-polarization: primary CD14+ monocytes cultured in M2 polarizing conditions; assay type: cell-based; conditions: donor (A, H, L, D, B), Donor A and B n = 1
Method: The TAM RTKs play an important role in balancing the functions of M1 and M2 macrophage subsets. Compound 1 was tested for inhibition against primary CD14+ monocytes cultured in M2 polarizing conditions. A dose dependent polarization of the monocytes to pro-inflammatory M1 macrophages across cells from all tested donors was observed (Table 4).

**Q.** What does the source list for CNC(=O)c1cc2c(Oc3ccc(NC(=O)C4(C(=O)Nc5ccc(F)cc5)CC4)cc3)ccnc2cc1OC [Compound 1, 1-N′-(4-Fluorophenvl)-1-N-[4-[7-methoxy-6-(methylcarbamovl)quinolin-4-yl]oxyphenyl]cyclopropane-1,1-dicarboxamide]?
**A.** genotoxicity (mammalian cell): negative; genotoxicity (bacterial): negative; subjects with treatment-related Grade 3 events (advanced solid tumors; as of 14 Dec. 2020): five subjects; treatment-related Grade 4 or Grade 5 events (advanced solid tumors; as of 14 Dec. 2020): no treatment-related Grade 4 or Grade 5 events; tolerability (advanced solid tumors; single agent and in combination with ICI therapy): well tolerated; preliminary clinical activity (advanced solid tumors; single agent therapy and atezolizumab combination therapy cohorts): prolonged disease stabilization and tumor regressions; DLTs observed among completed dose levels (advanced solid tumors; single agent, one subject at 140 mg po qd, Grade 3 uncontrolled hypertension): one DLT; substrate of transporter (BCRP): not to be a substrate; IC50 (BCRP; strong inhibitor): 189 nM; substrate of transporter (P-gp): not to be a substrate; IC50 (P-gp; strong inhibitor): 59 nM; M1/M2 Ratio, Fold Change Relative to DMSO (n = 2) ([1]; 2 uM): 1.3 ± 2.6 and 1.7 (2×) and 1.0 ± 2.6 and 2.2 ± 1.1; M1/M2 Ratio, Fold Change Relative to DMSO (n = 2) ([1]; 4 uM): 3.6 ± 1.2 and 4.1 and 3.3 and 3.7 ± 1.2 and 3.4 ± 1.4; M1/M2 Ratio, Fold Change Relative to DMSO (n = 2) ([1]; 6 uM): 3.5 ± 1.2 and 4.0 and 4.6 and 4.5 ± 1.0 and 4.6 ± 1.7
